Measured values as given in patent US8623996B2, “Cold active enzyme and method thereof” (University Putra Malaysia, priority 2010, dated 2014).
Square brackets hold non-standard residues; d marks the D form. Peptide text beside a SMILES is read from it. * marks the point of attachment. Sta = CC(C)C[C@H](N)[C@@H](O)CC(=O)O; Isovaleryl = CC(C)CC(=O)*

How the values were obtained:
[1] = test system: isolate PI12; test: Antibiotic resistance of isolate PI12; type: cell-based, Leucosporodium antarcticum
Experimental: The bacterium was grown in nutrient broth and agar plates at 4° C. without shaking. Visible growth was observed after one week of incubation. […] The growth of isolate PI12 was inhibited at 25-37° C.
Extracellular enzyme activities, by isolate PI12 namely protease and lipase, were also observed.

[2] = test system: LipPI12 protease; test: Effect of metal ions on LipPI12 protease activity; type: biochemical, Leucosporodium antarcticum PI12; details: 1 mM metal ion, 30 min at 20° C.
Experimental: (§1) Both the lipase and protease were treated with 1 mM of various metal ions for 30 mins prior to enzyme assays. Lipase activity ?; protease activity ? .
(§2) Various metal ions were tested by treating the purified enzyme with 1 mM of metal ions such as Na^+, Mg^2+, Ca^2+, Fe^2+, Mn^2+, K^+, Zn^2+ and Cu^2+ for 30 min at 20° C. It was subjected to lipase and protease assays after treatment. The effects of various metal ions were tested on the purified LipPI12 activity and the remaining activity was assayed using olive oil emulsion. […] This is an indication which explains the role of Ca ion which may work as a stabilizer to the molecule, as predicted in the LipPI12 3D model. Whereas, the beta roll motif, served as a metal binding site, presumably predicted for the Ca ions. […] Na^+ Mg^2+ and Fe^2+ have toxic effect to the enzyme. Other metal ions tested were CuCl2, ZnCl2 and MnCl2, which had obviously made the lipase to be slightly stable and with no elimination of activity relatively not less than 50% (FIG. 27).
Protease LipPI12 looks more susceptible to all metal ions tested. […] The incubation with Na^+ and […] ions had done little effect as compared to the destabilizing manner shown by divalent ions of Cu^2+ and Mn^2+. […] A novel binding site for Zn ion may be involved in protease LipPI12. Structural elucidation is the best way to decipher the findings. The activation effect of Ca ion in both lipase and protease of LipPI12 is caused by the nature of the psychrophilic enzyme. Huge conformational movement will probably allow active residue rearrangement and can provide better accessibility of substrate, thus giving rise to a unique enzyme like LipPI12. This is achieved via local flexibility and mobility as the enzyme from psychrophiles evolves to withstand the extreme conditions, not only the coldness but also the low water content and substrate availability. Metal ions have been recognized to have effects on the activity of various enzymes. They bind the substrate and orient them properly for the reaction to occur. Besides mediating oxidation-reduction reactions, they can also electrostatically stabilize or shield negative charges. On the other hand, based on the correlation between the enzymes and metal ions, these enzymes could be classified into two types: Metalloenzymes and Metal-activated enzyme. In Metalloenzyme, metal ions such as Fe, Cu, Mn, Co are tightly bound ion pairs. While in the metal-activated enzymes, the metal ions such as Na, K, Mg, and Ca are loosely bound metal ions from the solution. Based on these facts, the protease LipPI12 is considered as a metal-activated enzyme.

[3] = test system: LipPI12 lipase; test: Effect of metal ions on LipPI12 lipase activity; type: biochemical, Leucosporodium antarcticum PI12; details: 1 mM metal ion, 30 min at 20° C.
Experimental: as §1, §2

[4] = test system: LipPI12 lipase; test: Organic solvent tolerance of LipPI12 lipase; type: biochemical, Leucosporodium antarcticum PI12; details: 3 ml enzyme solution + 1 ml solvent, 20° C., 30 min
Experimental: (§3) Protease activity ?; Lipase activity ? .
(§4) Study On LipPI12 organic solvent stability was carried out in reaction mixture containing purified LipPI12 and various solvents. The mixture was incubated at 20° C. with shaking rates at 150 rpm for 30 min. Control reaction was done by mixing the enzyme with water. Relative activity of lipase was determined according Kwon and Rhee (1986) method. Whereby protease assay was done according to Brock et, al., (1982). The effects of various organic solvents on the stability of the cold active LipPI12 were studied. A mixture of 3 ml enzyme solution and 1 ml of an organic solvent was incubated at 20° C. with shaking, and the remaining activity was measured after 30 min of incubation.

[5] = test system: LipPI12 protease; test: Effect of inhibitors on LipPI12 protease activity; type: biochemical, Leucosporodium antarcticum PI12; details: 1 mM inhibitor, 20° C., 30 min
Experimental: (§5) The final concentration of inhibitors was 1 mM. The LipPI12 lipase and protease were assayed with olive oil as substrate after incubation with inhibitors for 30 min.
(§6) Partial understanding of the enzyme catalysis involves the reaction with various inhibitors. […] Various inhibitors were tested at a final concentration of 1 mM (PMSF, EDTA and pepstatin). The purified enzyme was treated with various inhibitors at 20° C. for 30 min prior to measuring the residual activity colorimetrically.

[6] = test system: LipPI12 lipase; test: Effect of inhibitors on LipPI12 lipase activity; type: biochemical, Leucosporodium antarcticum PI12; details: 1 mM inhibitor, 20° C., 30 min
Experimental: as §5, §6

[7] = test system: LipPI12 protease; test: Effect of surfactants on LipPI12 protease activity; type: biochemical, Leucosporodium antarcticum PI12; details: 0.1% surfactant, 20° C., 30 min
Experimental: (§7) The purified LipPI12 lipase and protease were mixed with surfactants (final concentration of 0.1%, v/v) and was incubated at 20° C. for 30 min prior to enzymatic assays. Lipase activity ?; Protease activity ? .
(§8) Surfactants or surface active agents are the most important constituents in the formulation of detergent. Enzyme and surfactants form unique interactions that affect the function of enzyme, i.e. whether to stabilize or destabilize. […] Lipase and protease LipPI12 was treated with various surfactants at a concentration of […] at 20° C. for 30 min before being subjected to lipase and protease assays colorimetrically. The study on the effect of LipPI12 lipase and its protease on various surfactants was carried out using 0.1% of surfactant, namely from TWEEN™ 20-80, TRITON™ X-100, SDS and SLS. […] Remarkably, LipPI12 protease was activated in the presence of TWEEN™ 80 and SLS, with 30 and 70% enhancement, respectively. […] The incubation with SDS also seemed to affect LipPI12 protease catalytic activity, where it dropped to only 27% of its control activity.

[8] = test system: LipPI12 protease; test: Organic solvent tolerance of LipPI12 protease; type: biochemical, Leucosporodium antarcticum PI12; details: 3 ml enzyme solution + 1 ml solvent, 20° C., 30 min
Experimental: as §3, §4

[9] = test system: LipPI12 lipase; test: Substrate specificity of LipPI12 lipase, para-nitrophenyl esters; type: biochemical, Leucosporodium antarcticum PI12; details: versus butyrate (C4), caprylate (C8), laurate (12)
Experimental: Values in bracket represent the fatty acid carbon chain length.
(§9) Various triglycerides (triacetin, tributyrin, tricaprylin, triolein) p-nitrophenol esters (p-nitrophenylbutyrate, p-nitrophenylcaprylate, p-nitrophenyllaurate, p-nitrophenylpalmitate) and natural oils (olive oil, soy bean oil, corn oil, sun flower oil, rice brain oil, coconut and palm oil) were tested for the cold active LipPI12 lipase activity. It was assayed at 20° C. for 30 min colorimetrically. The capability of the LipPI12 to hydrolyze different carbon chain lengths of triglycerides was investigated. […] LipPI12 lipase substrate specificity towards medium chain length was also observed in natural oils. […] LipPI12 low efficiency or inability to catalyze such substrate was probably due to improper substrate and active coordination and limited substrate accessibility as a result of cis conformation of aliphatic chain when compared to the trans conformation which is much linear. Artificial substrate was also used in the form of esters, namely para-nitrophenyl (pNP) esters containing carbon chain ranging from C4 (butyrate) to C16 (palmitate). […] Certainly, LipPI12 broad substrate specificity, which posed a huge prospect in application and the understanding of mechanism, is important. Nonetheless, the profile of substrate is a crucial point, where accessibility determines substrate specificity. […]

[10] = test system: LipPI12 lipase; test: Substrate specificity of LipPI12 lipase, pure triglycerides; type: biochemical, Leucosporodium antarcticum PI12; details: 20° C., 30 min, substrate 1:1 v/v
Experimental: Values in bracket represent the carbon chain length of each substrate. LipPI12 lipase was assayed with the pure triglycerides (1:1, v/v) as substrate.
as §9, with “important.” for “important. Nonetheless, the profile of substrate is a crucial point, where accessibility determines substrate specificity.”

[11] = test system: LipPI12 lipase; test: Effect of surfactants on LipPI12 lipase activity; type: biochemical, Leucosporodium antarcticum PI12; details: 0.1% surfactant, 20° C., 30 min
Experimental: as §7, §8
Target sequence in this assay (as listed by the source): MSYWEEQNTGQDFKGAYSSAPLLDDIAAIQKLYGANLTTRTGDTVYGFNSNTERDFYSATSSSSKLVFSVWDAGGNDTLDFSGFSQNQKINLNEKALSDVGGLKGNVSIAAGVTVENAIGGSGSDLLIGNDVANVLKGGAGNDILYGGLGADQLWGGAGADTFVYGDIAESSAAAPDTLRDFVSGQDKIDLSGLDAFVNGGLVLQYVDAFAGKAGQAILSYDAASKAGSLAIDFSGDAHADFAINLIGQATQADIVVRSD

CC1(C)S[C@@H]2[C@H](NC(=O)[C@H](N)c3ccccc3)C(=O)N2[C@H]1C(=O)O [Ampicilin]
resistance of isolate PI12 [1]: resistance

[Ca+2].[Cl-].[Cl-] [CaCl2]
protease relative activity as compared to the control [2]: ~100% | effect of metal ion on lipase activity [3]: activator | lipase activity as compared to the control ([3]; olive oil emulsion): 115%

O=C(N[C@H](CO)[C@H](O)c1ccc([N+](=O)[O-])cc1)C(Cl)Cl [Chloramphenicol]
resistance of isolate PI12 [1]: resistance

[Cl][Cu][Cl] [CuCl2]
effect of metal ion on protease activity [2]: do not affect | protease relative activity as compared to the control [2]: 4%

CCOCC [Diethyleter]
effect of organic solvent on lipase [4]: total elimination of activity

O=C(O)CN(CCN(CC(=O)O)CC(=O)O)CC(=O)O [EDTA, ethylene diamine tetraacetic acid]
inhibition of protease (words) [5]: partially inhibited | inhibition of lipase [6]: partially inhibited

[Cl][Fe]([Cl])[Cl] [FeCl3]
effect of metal ion on protease activity [2]: do not affect

[Fe+2] [Fe^2+]
protease relative activity as compared to the control [2]: ~100% | effect of metal ion on lipase activity [3]: toxic effect

[K+] [IC]
effect of metal ion on protease activity [2]: little effect

[Cl-].[Cl-].[Mg+2] [Mg^2+, MgCl2]
effect of metal ion on protease activity [2]: activator | protease relative activity as compared to the control [2]: ~100% | effect of metal ion on lipase activity [3]: toxic effect

[Cl][Mn][Cl] [MnCl2]
protease relative activity as compared to the control [2]: 40%

[Na+] [Na^+]
effect of metal ion on protease activity [2]: little effect | effect of metal ion on lipase activity [3]: toxic effect

O=S(=O)(F)Cc1ccccc1 [PMSF, phenylmethylsulphonyl fluoride]
inhibition of protease (words) [5]: partially inhibited | inhibition of lipase [6]: partially inhibited

CC(C)CC(=O)N[C@H](C(=O)N[C@H](C(=O)N[C@@H](CC(C)C)[C@@H](O)CC(=O)N[C@@H](C)C(=O)N[C@@H](CC(C)C)[C@@H](O)CC(=O)O)C(C)C)C(C)C [Pepstatin] (Isovaleryl-VV[Sta]A[Sta]-OH)
inhibition of protease (words) [5]: drastically eliminated | inhibition of protease (words) ([5]; listed as pepstatin): inhibited

CCCCCCCCCCCCOS(=O)(=O)[O-].[Na+] [SDS]
protease activity remaining, of control activity [7]: 27%

CCCCCCCCCCCCOS(=O)(=O)[O-].[Na+] [SLS, Sodium lauryl sulphate]
enhancement of protease activity [7]: 70%

[Cl-].[Cl-].[Zn+2] [ZnCl2]
effect of metal ion on protease activity [2]: activator | protease relative activity as compared to the control [2]: 170%

O=S(=O)([O-])[O-].[Zn+2] [ZnSO4]
effect of metal ion on protease activity [2]: do not affect

c1ccccc1 [benzene]
effect of organic solvent on lipase [4]: good stability

CCCCCCCCCC [decane]
effect of organic solvent on lipase [4]: total elimination of activity

CCCCCCCCCCCC [dodecane]
effect of organic solvent on lipase [4]: good stability

CCCCCCCCCCCCCCCC [hexadecane]
effect of organic solvent on lipase [4]: good stability | effect of organic solvent on protease [8]: tolerance

CCCCCC [hexane]
effect of organic solvent on lipase [4]: total elimination of activity

CCCCCCCCCCCCCCCC(=O)Oc1ccc([N+](=O)[O-])cc1 [pNP palmitate, p-nitrophenylpalmitate]
increment of activity relative to other pNP esters [9]: 60%

CCCO [propanol]
lipase activity in solvent ([4]; control in water): > 160%

Cc1ccccc1 [toluene]
decrease of lipase activity [4]: more than 50%

CCCCCCCCCCCC(=O)OCC(COC(=O)CCCCCCCCCCC)OC(=O)CCCCCCCCCCC [trilaurin]
relative activity, triglyceride as substrate [10]: 100%

TRITON™ X-100
effect of surfactant on lipase activity [11]: retains its activity | effect of surfactant on protease activity [7]: retain its activity

TWEEN™ 40
effect of surfactant on lipase activity [11]: retains its activity | effect of surfactant on protease activity [7]: retain its activity

TWEEN™ 60
effect of surfactant on lipase activity [11]: retains its activity | effect of surfactant on protease activity [7]: retain its activity

TWEEN™ 80
enhancement of protease activity [7]: 30%

dimethylsulfonyl
increase of lipase activity [4]: ~80% | effect of organic solvent on protease [8]: tolerance
